Assay results reported in patent publication US20240299385A1 (ReWind Therapeutics NV, priority 2021, published 2024).

target: T1, human GPR17 receptor (Homo sapiens, UniProt Q13304); assay: Calcium mobilization functional assay (Fluo-8, FLIPR TETRA) in HEK-293 hGPR17 (Gα-q assay); format: cell-based; settings: antagonism of MDL29,951 (~EC80) induced Ca2+ signal; cell line (HEK-293 hGPR17 or HEK-293 Suchi5 hGPR17) not given
T1 construct: host or cells: HEK-293
Procedure: HEK-293 cells stably expressing the human GPR17 receptor (HEK-293 hGPR17) developed by Axxam (Bresso, Milan, Italy) were cultured at 37° C. in a humidified atmosphere of 5% CO2. Cells were grown in EMEM supplemented with FBS (10%), Penicillin/Streptomycin (1%), Ultraglutamine I (2 mM), puromycin (0.6 μg/mL), G418 (0.4 mg/mL), zeocin (50 μg/mL). This cell line was used to test the compound antagonistic activity by monitoring the Gα-q based signaling. Signaling via Gα-q leads to mobilization of calcium from internal stores. Elevated intracellular calcium levels can then be measured with calcium-sensitive fluorescent dyes (e.g., Fluo 8-No Wash Dye).
GPR17 activation leads to both an increase in intracellular calcium (via Gα-q) and a decrease in cAMP levels (via Gα-i), implicating that both of these pathways play a role for in vivo function.
Experiments were performed using the below cell lines, as described in part 1: • HEK-293 hGPR17 (used to study the compounds acting via Gα-q pathway) • HEK-293 Suchi5 hGPR17 (used to study the compounds acting via Gα-i pathway, where the Gα-i signaling is switched to a Gα-q signaling thanks to the Gα-i/q chimera Suchi5)
GPR17 activation was able to induce an endoplasmic reticulum calcium (Ca^2+) store release in cytosol which could be measured using the fluorescent Ca^2+ sensitive dye Fluo-8 No Wash Dye as readout.
HEK-293 hGPR17 and HEK-293 Suchi5 hGPR17 were seeded at a density of 15,000 cells/well into poly-D-lysine coated black 384-well plates with clear bottom in complete medium. Cells were incubated overnight at 37° C. in a humidified atmosphere of 5% CO2. Twenty-four hours after seeding, the culture medium was carefully removed manually and the cells were loaded for 60 minutes at room temperature with the Ca^2+ sensitive Fluo-8 No Wash Dye, according to manufacturer's instructions. Cells were then assayed using a fluorometric imaging plate reader (FLIPR^TETRA). Fluorescence (excitation: 470-495 nm; emission: 515-575 nm) was recorded during the experiment. […] After twenty minutes, a second injection of MDL29,951 at ˜EC80 (500 nM for HEK-293 hGPR17 and 2 nM for HEK-293 Suchi5 hGPR17) in assay buffer was performed at the FLIPR^TETRA and the signal of the emitted fluorescence was recorded for additional 2 minutes. All the compound injections and incubations were performed in duplicate. For data quality and data analysis the Screener® 16.0.6 (Genedata) software was used.

T1 sequence (Q13304 whole entry): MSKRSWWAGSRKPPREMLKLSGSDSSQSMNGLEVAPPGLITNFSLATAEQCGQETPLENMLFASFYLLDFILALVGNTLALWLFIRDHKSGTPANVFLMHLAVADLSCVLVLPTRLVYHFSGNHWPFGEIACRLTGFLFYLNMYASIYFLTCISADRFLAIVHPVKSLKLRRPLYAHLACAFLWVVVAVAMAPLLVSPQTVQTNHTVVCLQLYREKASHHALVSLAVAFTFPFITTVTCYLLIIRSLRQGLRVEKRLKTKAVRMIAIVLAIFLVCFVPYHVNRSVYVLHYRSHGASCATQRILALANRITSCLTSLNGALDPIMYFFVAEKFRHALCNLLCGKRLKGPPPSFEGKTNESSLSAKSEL

SMILES | IC50 [nM]
CC(c1ccccn1)c1cc(S(=O)(=O)Nc2ccc(C#N)cc2F)c[nH]1 (stereo not drawn) | 5000 to 50000
Cc1[nH]c(-c2ccccc2)cc1S(=O)(=O)Nc1ccc(C#N)cc1F [Cpd 001, N-(4-cyano-2-fluorophenyl)-2-methyl-5-phenyl-1H-pyrrole-3-sulfonamide] | 500 to 5000
N#Cc1ccc(NS(=O)(=O)c2c[nH]c(-c3ccccc3)c2)c(F)c1 [Cpd 002, N-(4-cyano-2-fluorophenyl)-5-phenyl-1H-pyrrole-3-sulfonamide] | < 500
O=S(=O)(Nc1cc(F)c(Br)cc1F)c1c[nH]c(-c2ccccc2)c1 [Cpd 003, N-(4-bromo-2,5-difluoro-phenyl)-5-phenyl-1H-pyrrole-3-sulfonamide] | < 500
N#Cc1ccc(NS(=O)(=O)c2c[nH]c(-c3cccc(F)c3)c2)c(F)c1 [Cpd 004, N-(4-cyano-2-fluoro-phenyl)-5-(3-fluorophenyl)-1H-pyrrole-3-sulfonamide] | < 500
Cc1cccc(-c2cc(S(=O)(=O)Nc3ccc(C#N)cc3F)c[nH]2)c1 [Cpd 005, N-(4-cyano-2-fluoro-phenyl)-5-(m-tolyl)-1H-pyrrole-3-sulfonamide] | < 500
N#Cc1ccc(NS(=O)(=O)c2c[nH]c(-c3cccc(Cl)c3)c2)c(F)c1 [Cpd 006, 5-(3-chlorophenyl)-N-(4-cyano-2-fluoro-phenyl)-1H-pyrrole-3-sulfonamide] | < 500
N#Cc1ccc(NS(=O)(=O)c2c[nH]c(-c3ccc(F)cc3)c2)c(F)c1 [Cpd 007, N-(4-cyano-2-fluoro-phenyl)-5-(4-fluorophenyl)-1H-pyrrole-3-sulfonamide] | < 500
Cc1ccc(-c2cc(S(=O)(=O)Nc3ccc(C#N)cc3F)c[nH]2)cc1 [Cpd 008, N-(4-cyano-2-fluoro-phenyl)-5-(p-tolyl)-1H-pyrrole-3-sulfonamide] | 500 to 5000
N#Cc1ccc(NS(=O)(=O)c2c[nH]cc2-c2ccccc2)c(F)c1 [Cpd 009, N-(4-cyano-2-fluorophenyl)-4-phenyl-1H-pyrrole-3-sulfonamide] | 500 to 5000
COc1cccc(-c2cc(S(=O)(=O)Nc3ccc(C#N)cc3F)c[nH]2)c1 [Cpd 010, N-(4-cyano-2-fluoro-phenyl)-5-(3-methoxyphenyl)-1H-pyrrole-3-sulfonamide] | < 500
N#Cc1ccc(NS(=O)(=O)c2c[nH]c(-c3ccc(Cl)cc3)c2)c(F)c1 [Cpd 011, 5-(4-chlorophenyl)-N-(4-cyano-2-fluoro-phenyl)-1H-pyrrole-3-sulfonamide] | 500 to 5000
COc1ccc(-c2cc(S(=O)(=O)Nc3ccc(C#N)cc3F)c[nH]2)cc1 [Cpd 012, N-(4-cyano-2-fluoro-phenyl)-5-(4-methoxyphenyl)-1H-pyrrole-3-sulfonamide] | 5000 to 50000
N#Cc1ccc(NS(=O)(=O)c2c[nH]c(C(=O)c3ccccc3)c2)c(F)c1 [Cpd 013, 5-benzoyl-N-(4-cyano-2-fluoro-phenyl)-1H-pyrrole-3-sulfonamide] | 5000 to 50000
N#Cc1ccc(NS(=O)(=O)c2c[nH]c(-c3ccccc3F)c2)c(F)c1 [Cpd 014, N-(4-cyano-2-fluorophenyl)-5-(2-fluorophenyl)-1H-pyrrole-3-sulfonamide] | < 500
Cc1ccccc1-c1cc(S(=O)(=O)Nc2ccc(C#N)cc2F)c[nH]1 [Cpd 015, N-(4-cyano-2-fluoro-phenyl)-5-(o-tolyl)-1H-pyrrole-3-sulfonamide] | < 500
N#Cc1ccc(NS(=O)(=O)c2c[nH]c(-c3ccccc3Cl)c2)c(F)c1 [Cpd 016, 5-(2-chlorophenyl)-N-(4-cyano-2-fluoro-phenyl)-1H-pyrrole-3-sulfonamide] | < 500
COc1ccccc1-c1cc(S(=O)(=O)Nc2ccc(C#N)cc2F)c[nH]1 [Cpd 017, N-(4-cyano-2-fluoro-phenyl)-5-(2-methoxyphenyl)-1H-pyrrole-3-sulfonamide] | < 500
N#Cc1ccc(NS(=O)(=O)c2c[nH]c(C3CCCC3)c2)c(F)c1 [Cpd 018, N-(4-cyano-2-fluorophenyl)-5-cyclopentyl-1H-pyrrole-3-sulfonamide] | 500 to 5000
N#Cc1ccc(NS(=O)(=O)c2c[nH]c(Cc3ccccc3)c2)c(F)c1 [Cpd 019, 5-benzyl-N-(4-cyano-2-fluoro-phenyl)-1H-pyrrole-3-sulfonamide] | 500 to 5000

SMILES | IC50 [nM]
N#Cc1ccc(NS(=O)(=O)c2cc(-c3ccccc3)[nH]c2F)c(F)c1 [Cpd 020, N-(4-cyano-2-fluorophenyl)-2-fluoro-5-phenyl-1H-pyrrole-3-sulfonamide] | 500 to 5000
N#Cc1ccc(NS(=O)(=O)c2c[nH]c(-c3cccc(C(F)(F)F)c3)c2)c(F)c1 [Cpd 021, N-(4-cyano-2-fluoro-phenyl)-5-[3-(trifluoromethyl)phenyl]-1H-pyrrole-3-sulfonamide] | 500 to 5000
CC(C)c1cccc(-c2cc(S(=O)(=O)Nc3ccc(C#N)cc3F)c[nH]2)c1 [Cpd 022, N-(4-cyano-2-fluoro-phenyl)-5-(3-isopropylphenyl)-1H-pyrrole-3-sulfonamide] | 5000 to 50000
N#Cc1ccc(NS(=O)(=O)c2c[nH]c(-c3ccccc3)c2F)c(F)c1 [Cpd 023, N-(4-cyano-2-fluorophenyl)-4-fluoro-5-phenyl-1H-pyrrole-3-sulfonamide] | < 500
N#Cc1ccc(NS(=O)(=O)c2c[nH]c(-c3ccncc3)c2)c(F)c1 [Cpd 024, N-(4-cyano-2-fluoro-phenyl)-5-(4-pyridyl)-1H-pyrrole-3-sulfonamide] | 5000 to 50000
N#Cc1cccc(-c2cc(S(=O)(=O)Nc3ccc(C#N)cc3F)c[nH]2)c1 [Cpd 025, N-(4-cyano-2-fluoro-phenyl)-5-(3-cyanophenyl)-1H-pyrrole-3-sulfonamide] | < 500
N#Cc1ccc(NS(=O)(=O)c2c[nH]c(-c3ccccn3)c2)c(F)c1 [Cpd 026, N-(4-cyano-2-fluoro-phenyl)-5-(2-pyridyl)-1H-pyrrole-3-sulfonamide] | < 500
N#Cc1ccc(NS(=O)(=O)c2c[nH]c(-c3cccnc3)c2)c(F)c1 [Cpd 027, N-(4-cyano-2-fluoro-phenyl)-5-(3-pyridyl)-1H-pyrrole-3-sulfonamide] | 500 to 5000
N#Cc1cc(F)c(NS(=O)(=O)c2c[nH]c(-c3ccccc3)c2)cc1F [Cpd 028, N-(4-cyano-2,5-difluoro-phenyl)-5-phenyl-1H-pyrrole-3-sulfonamide] | < 500
Cc1cc(C#N)ccc1NS(=O)(=O)c1c[nH]c(-c2ccccc2)c1 [Cpd 029, N-(4-cyano-2-methyl-phenyl)-5-phenyl-1H-pyrrole-3-sulfonamide] | 5000 to 50000
COc1cc(C#N)ccc1NS(=O)(=O)c1c[nH]c(-c2ccccc2)c1 [Cpd 030, N-(4-cyano-2-methoxy-phenyl)-5-phenyl-1H-pyrrole-3-sulfonamide] | 500 to 5000
Cc1cc(NS(=O)(=O)c2c[nH]c(-c3ccccc3)c2)ccc1C#N [Cpd 031, N-(4-cyano-3-methyl-phenyl)-5-phenyl-1H-pyrrole-3-sulfonamide] | 500 to 5000
COc1ccc(NS(=O)(=O)c2c[nH]c(-c3ccccc3)c2)c(F)c1 [Cpd 032, N-(2-fluoro-4-methoxy-phenyl)-5-phenyl-1H-pyrrole-3-sulfonamide] | 5000 to 50000
Cc1c(S(=O)(=O)Nc2ccc(C#N)cc2F)c[nH]c1-c1ccccc1 [Cpd 033, N-(4-cyano-2-fluoro-phenyl)-4-methyl-5-phenyl-1H-pyrrole-3-sulfonamide] | < 500
N#Cc1ccc(NS(=O)(=O)c2c[nH]cc2Cc2ccccc2)c(F)c1 [Cpd 034, 4-benzyl-N-(4-cyano-2-fluorophenyl)-1H-pyrrole-3-sulfonamide] | < 500
N#Cc1ccc(NS(=O)(=O)c2c[nH]c(-c3ccccc3)c2)cc1F [Cpd 035, N-(4-cyano-3-fluoro-phenyl)-5-phenyl-1H-pyrrole-3-sulfonamide] | < 500
N#Cc1ccc(NS(=O)(=O)c2c[nH]c(-c3ccccc3)c2)c(Cl)c1 [Cpd 036, N-(2-chloro-4-cyano-phenyl)-5-phenyl-1H-pyrrole-3-sulfonamide] | 500 to 5000
N#Cc1ccc(NS(=O)(=O)c2c[nH]c(-c3ccccc3)c2)nc1 [Cpd 037, N-(5-cyano-2-pyridyl)-5-phenyl-1H-pyrrole-3-sulfonamide] | 5000 to 50000
N#Cc1ccc(NS(=O)(=O)c2c[nH]c(-c3ccc(F)cc3F)c2)c(F)c1 [Cpd 038, N-(4-cyano-2-fluoro-phenyl)-5-(2,4-difluorophenyl)-1H-pyrrole-3-sulfonamide] | < 500
